± gives the standard deviation of the averaged measurements.
Test system: HepaRG
Experiment: LDH release cytotoxicity, % of total lysis control; higher = more cytotoxic
Settings: 48 h
Summary of the method: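 HepaRG cells from a single lot were plated on collagen I-coated 96-well plates and treated in duplicate for 48 h with eight-point half-log series of test chemicals, starting at 100 µM, in serum-free induction medium containing 0.5% DMSO. Total lysis wells were given 0.1% Triton X. LDH released into 50 µL of spent medium was measured as resorufin fluorescence with CytoTox-ONE on a Tecan Safire. Percent cytotoxicity was normalized to on-plate vehicle and total lysis controls and then averaged across duplicates.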

For `CCN1CCC2(CC1)COc1cc3c(cc12)N(C(=O)c1ccc(-c2ccc(-c4nnc(C)o4)cc2C)cc1)CC3`, the LDH release cytotoxicity (0.03162 µM) was -2.84 ± 1.3%, the LDH release cytotoxicity (0.1 µM) was -2.94 ± 0.81% and the LDH release cytotoxicity (0.3162278 µM) was -1.93 ± 1.5%. For the same molecule, the LDH release cytotoxicity (1 µM) was -3.08 ± 0.76%, the LDH release cytotoxicity (3.16228 µM) was -3.21 ± 1.3% and the LDH release cytotoxicity (10 µM) was -2.54 ± 0.92%. It also gave an LDH release cytotoxicity (31.6228 µM) of -2.8 ± 0.8% and an LDH release cytotoxicity (100 µM) of -0.687 ± 1.4%.
With `O=[N+]([O-])c1ccc(O)cc1` [4-Nitrophenol] the LDH release cytotoxicity (0.03162 µM) was -0.152 ± 0.3%, the LDH release cytotoxicity (0.1 µM) was -1.48 ± 0.38% and the LDH release cytotoxicity (0.3162278 µM) was -1.18 ± 0.11%. The LDH release cytotoxicity (1 µM) was -1.8 ± 1.2%, the LDH release cytotoxicity (3.16228 µM) was -0.936 ± 0.28% and the LDH release cytotoxicity (10 µM) was -1.26 ± 0.099%. For the same molecule, the LDH release cytotoxicity (31.6228 µM) was -0.409 ± 0.81% and the LDH release cytotoxicity (100 µM) was -0.082 ± 0.47%.
`Cc1ccccc1[N+](=O)[O-]` [2-Nitrotoluene] gave an LDH release cytotoxicity (0.0324133 µM) of -0.207 ± 0.0063%, an LDH release cytotoxicity (0.1025 µM) of -0.999 ± 0.6% and an LDH release cytotoxicity (0.324134 µM) of -0.895 ± 0.32%. The LDH release cytotoxicity (1.025 µM) was -1.29 ± 0.7%, the LDH release cytotoxicity (3.24133 µM) was -0.412 ± 0.16% and the LDH release cytotoxicity (10.25 µM) was 0.00334 ± 0.67%. The LDH release cytotoxicity (32.4133 µM) was 0.414 ± 0.41% and the LDH release cytotoxicity (102.5 µM) was 1.14 ± 0.065%.
Molecule `COc1nn(CSP(=S)(OC)OC)c(=O)s1` [Methidathion] has an LDH release cytotoxicity (0.03162 µM) of 1.04 ± 0.16%, an LDH release cytotoxicity (0.1 µM) of -1.02 ± 0.18% and an LDH release cytotoxicity (0.3162278 µM) of -0.883 ± 0.25%. For the same molecule, the LDH release cytotoxicity (1 µM) was -0.575 ± 0.076%, the LDH release cytotoxicity (3.16228 µM) was 0.0624 ± 0.29% and the LDH release cytotoxicity (10 µM) was 1.08 ± 1.4%. The LDH release cytotoxicity (31.6228 µM) was 0.461 ± 1% and the LDH release cytotoxicity (100 µM) was 1.33 ± 0.11%.
For `CCCCCCCCCCCCCCCO` [1-Pentadecanol], the LDH release cytotoxicity (0.03162 µM) was 0.0106 ± 0.14%, the LDH release cytotoxicity (0.1 µM) was -0.465 ± 0.06% and the LDH release cytotoxicity (0.3162278 µM) was 0.131 ± 0.74%. For the same molecule, the LDH release cytotoxicity (1 µM) was -0.574 ± 0.11%, the LDH release cytotoxicity (3.16228 µM) was 0.207 ± 0.55% and the LDH release cytotoxicity (10 µM) was 0.233 ± 0.26%. For the same molecule, the LDH release cytotoxicity (31.6228 µM) was 0.338 ± 0.26% and the LDH release cytotoxicity (100 µM) was 2.58 ± 0.24%.
With `CC(C)CCCCCCOC(=O)CCCCC(=O)OCCCCCCC(C)C` [Hexanedioic acid, diisononyl ester] the LDH release cytotoxicity (0.03162 µM) was -1.22 ± 0.85%, the LDH release cytotoxicity (0.1 µM) was -0.123 ± 0.24% and the LDH release cytotoxicity (0.3162278 µM) was 0.647 ± 0.098%. For the same molecule, the LDH release cytotoxicity (1 µM) was -0.997 ± 1.1%, the LDH release cytotoxicity (3.16228 µM) was 0.19 ± 0.33% and the LDH release cytotoxicity (10 µM) was 0.0398 ± 0.088%. It also gave an LDH release cytotoxicity (31.6228 µM) of 0.663 ± 0.4% and an LDH release cytotoxicity (100 µM) of 0.377 ± 0.98%.
In the case of `O=C(NC1CN2CCC1CC2)c1ccc2c(c1)OCCO2` (stereo not given), the LDH release cytotoxicity (0.03162 µM) is reported as -2.41 ± 0.21%, the LDH release cytotoxicity (0.1 µM) is reported as -1.45 ± 0.99% and the LDH release cytotoxicity (0.3162278 µM) is reported as -1.86 ± 0.11%. The LDH release cytotoxicity (1 µM) was -1.29 ± 0.88%, the LDH release cytotoxicity (3.16228 µM) was -1.81 ± 0.071% and the LDH release cytotoxicity (10 µM) was -1.38 ± 0.38%. It also gave an LDH release cytotoxicity (31.6228 µM) of -1.38 ± 0.035% and an LDH release cytotoxicity (100 µM) of 0.204 ± 0.59%.
In the case of `O=C(O)C(F)(F)C(F)(F)C(F)(F)C(F)(F)C(F)(F)F` [Perfluorohexanoic acid], the LDH release cytotoxicity (0.03162 µM) is reported as -0.915 ± 0.22%, the LDH release cytotoxicity (0.1 µM) is reported as -0.436 ± 0.56% and the LDH release cytotoxicity (0.3162278 µM) is reported as -1.48 ± 0.11%. It also gave an LDH release cytotoxicity (1 µM) of -1.3 ± 0.12%, an LDH release cytotoxicity (3.16228 µM) of -1.58 ± 0.4% and an LDH release cytotoxicity (10 µM) of -0.342 ± 0.24%. The LDH release cytotoxicity (31.6228 µM) was -0.769 ± 0.29% and the LDH release cytotoxicity (100 µM) was 0.349 ± 0.23%.
In the case of `COCc1cnc(C2=NC(C)(C(C)C)C(=O)N2)c(C(=O)O)c1` (stereo not given) [Imazamox], the LDH release cytotoxicity (0.03162 µM) is reported as -0.37 ± 0.36%, the LDH release cytotoxicity (0.1 µM) is reported as -1.71 ± 1.1% and the LDH release cytotoxicity (0.3162278 µM) is reported as -1.61 ± 0.19%. For the same molecule, the LDH release cytotoxicity (1 µM) was -1.73 ± 0.34%, the LDH release cytotoxicity (3.16228 µM) was -1.43 ± 0.53% and the LDH release cytotoxicity (10 µM) was -1.49 ± 0.15%. For the same molecule, the LDH release cytotoxicity (31.6228 µM) was -2 ± 0.16% and the LDH release cytotoxicity (100 µM) was -0.764 ± 0.39%.
Molecule `CC(=O)Oc1ccccc1C(=O)O` [Aspirin] has an LDH release cytotoxicity (0.03162 µM) of -1.2 ± 0.093%, an LDH release cytotoxicity (0.1 µM) of -0.322 ± 0.2% and an LDH release cytotoxicity (0.3162278 µM) of 0.562 ± 0.26%. It also gave an LDH release cytotoxicity (1 µM) of -0.207 ± 0.53%, an LDH release cytotoxicity (3.16228 µM) of -0.296 ± 0.42% and an LDH release cytotoxicity (10 µM) of -0.207 ± 0.33%. It also gave an LDH release cytotoxicity (31.6228 µM) of 0.489 ± 0.23% and an LDH release cytotoxicity (100 µM) of 2.14 ± 0.33%.
